Assay results from PubChem BioAssay (NCI).
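Each compound was tested at five concentrations against cells in 96-well plates for 48 hours. GI50 marks 50% less growth. TGI marks complete inhibition of growth.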

How the values were obtained:
Assay in all cases: growth of human tumour cells (NCI), 48 h
[1] = tested on: 786-0 renal
[2] = tested on: A498 renal
[3] = tested on: A549 NSCLC
[4] = tested on: ACHN renal
[5] = tested on: CAKI-1 renal
[6] = tested on: CCRF-CEM leukemia
[7] = tested on: COLO 205 colon
[8] = tested on: DU-145 prostate
[9] = tested on: EKVX NSCLC
[10] = tested on: HCC-2998 colon
[11] = tested on: HCT-15 colon
[12] = tested on: HL-60(TB) leukemia
[13] = tested on: HOP-62 NSCLC
[14] = tested on: HOP-92 NSCLC
[15] = tested on: HS 578T breast
[16] = tested on: HT29 colon
[17] = tested on: IGROV1 ovarian
[18] = tested on: K-562 leukemia
[19] = tested on: KM12 colon
[20] = tested on: LOX IMVI melanoma
[21] = tested on: M14 melanoma
[22] = tested on: MALME-3M melanoma
[23] = tested on: MCF7 breast
[24] = tested on: MDA-MB-231 breast
[25] = tested on: MDA-MB-435
[26] = tested on: MOLT-4 leukemia
[27] = tested on: NCI-H226 lung
[28] = tested on: NCI-H23 lung
[29] = tested on: NCI-H460 lung
[30] = tested on: NCI-H522 lung
[31] = tested on: NCI/ADR-RES ovarian
[32] = tested on: OVCAR-3 ovarian
[33] = tested on: OVCAR-4 ovarian
[34] = tested on: OVCAR-5 ovarian
[35] = tested on: OVCAR-8 ovarian
[36] = tested on: PC-3 prostate
[37] = tested on: RPMI-8226 leukemia
[38] = tested on: RXF 393 renal
[39] = tested on: SF-268 CNS
[40] = tested on: SF-295 CNS
[41] = tested on: SF-539 CNS
[42] = tested on: SK-MEL-2 melanoma
[43] = tested on: SK-MEL-28 melanoma
[44] = tested on: SK-MEL-5 melanoma
[45] = tested on: SK-OV-3 ovarian
[46] = tested on: SNB-19 CNS
[47] = tested on: SNB-75 CNS
[48] = tested on: SR leukemia
[49] = tested on: SW-620 colon
[50] = tested on: T-47D breast
[51] = tested on: TK-10 renal
[52] = tested on: U251 CNS
[53] = tested on: UACC-257 melanoma
[54] = tested on: UACC-62 melanoma
[55] = tested on: UO-31 renal
[56] = tested on: BT-549 breast

CC(O)[C@@]1(c2ccccc2)CC2(CCN(C)CC2)O[C@H]1C (stereo partly specified)
TGI [1]: > 100 µM | TGI [2]: > 100000 nM | TGI [3]: > 100 µM | TGI [4]: > 100 µM | TGI [5]: > 100 µM | TGI [6]: 79 µM | TGI [7]: > 100 µM | TGI [8]: > 100 µM | TGI [9]: > 100 µM | TGI [10]: > 100 µM | TGI [11]: > 100 µM | TGI [12]: 95 µM | TGI [13]: > 100 µM | TGI [14]: > 100 µM | TGI [15]: > 100000 nM | TGI [16]: > 100 µM | TGI [17]: > 100 µM | TGI [18]: > 100 µM | TGI [19]: > 100 µM | TGI [20]: > 100 µM | TGI [21]: > 100 µM | TGI [22]: > 100 µM | TGI [23]: > 100 µM | TGI [24]: > 100 µM | TGI [25]: > 100 µM | TGI [26]: > 100 µM | TGI [27]: > 100 µM | TGI [28]: > 100 µM | TGI [29]: > 100 µM | TGI [30]: > 100 µM | TGI [31]: > 100 µM | TGI [32]: > 100 µM | TGI [33]: > 100 µM | TGI [34]: > 100 µM | TGI [35]: > 100 µM | TGI [36]: > 100 µM | TGI [37]: > 100 µM | TGI [38]: > 100 µM | TGI [39]: > 100 µM | TGI [40]: > 100 µM | TGI [41]: > 100 µM | TGI [42]: > 100 µM | TGI [43]: > 100 µM | TGI [44]: > 100 µM | TGI [45]: > 100 µM | TGI [46]: > 100 µM | TGI [47]: > 100 µM | TGI [48]: > 100 µM | TGI [49]: > 100 µM | TGI [50]: 98 µM | TGI [51]: > 100 µM | TGI [52]: > 100 µM | TGI [53]: > 100 µM | TGI [54]: > 100 µM | TGI [55]: > 100 µM

C=C(C)[C@@H]1CC[C@]2(C(=O)OCCOCCOCC[P+](c3ccccc3)(c3ccccc3)c3ccccc3)CC[C@]3(C)[C@H](CC[C@@H]4[C@@]5(C)CC[C@H](OC(=O)C(Cl)Cl)C(C)(C)[C@@H]5CC[C@]43C)[C@@H]12
GI50 [2]: 225 nM | TGI [2]: 734 nM | GI50 [15]: 317 nM | TGI [15]: 1880 nM | GI50 [31]: 1540 nM | TGI [31]: 9 µM

COc1ccc(OC)c2c3c([nH]c12)C(=O)Nc1nc(N)nc(N)c1C3
TGI [1]: > 100 µM | TGI [56]: > 100 µM | TGI [8]: > 100 µM | TGI [9]: > 100 µM | TGI [10]: > 100 µM | TGI [14]: > 100 µM | TGI [16]: 4.49 µM | TGI [19]: > 100 µM | TGI [20]: > 100 µM | TGI [21]: > 100 µM | TGI [22]: > 100 µM | TGI [25]: > 100 µM | TGI [27]: > 100 µM | TGI [32]: > 100 µM | TGI [33]: > 100 µM | TGI [34]: > 100 µM | TGI [35]: > 100 µM | TGI [38]: > 100 µM | TGI [42]: > 100 µM | TGI [43]: > 100 µM | TGI [45]: > 100 µM | TGI [49]: > 100 µM | TGI [50]: > 100 µM | TGI [51]: > 100 µM | TGI [53]: > 100 µM
